In publication PMC11662004 (Communications Chemistry, 2024):
Where “and” joins values, the source holds several entries; their conditions need not be identical. Identical values can stand only once. Like-named read-outs stand apart in the source and are kept apart here.

Experiments:
NgTet1 [1] = target: T1, NgTet1 (Naegleria gruberi, UniProt D2W6T1); assay: biochemical; details: for normalised activity: NgTet1, NMR, 2 independent replicates
T1 construct: His6-tagged full-length Naegleria gruberi NgTet1 (321 a. a.) protein with a thrombin cleavage site; made in house; host or cells: E. coli BL21(DE3)
T1 sequence (D2W6T1 1-321): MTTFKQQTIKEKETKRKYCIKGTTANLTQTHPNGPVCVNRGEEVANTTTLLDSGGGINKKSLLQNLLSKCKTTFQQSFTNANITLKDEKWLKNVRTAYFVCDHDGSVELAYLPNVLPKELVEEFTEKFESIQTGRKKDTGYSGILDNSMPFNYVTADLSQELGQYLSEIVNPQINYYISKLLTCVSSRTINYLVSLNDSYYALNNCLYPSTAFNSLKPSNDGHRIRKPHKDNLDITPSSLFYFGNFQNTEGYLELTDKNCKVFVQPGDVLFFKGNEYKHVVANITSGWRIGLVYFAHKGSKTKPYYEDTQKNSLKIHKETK

NgTet1 [2] = target: T1, NgTet1; assay: End-point analysis for tandem activity detection (SPE-MS); format: biochemical; details: 5 µM NgTet1, 20 µM DNA, SPE-MS (Fig. S4)
Protocol: SPE-MS spectra were recorded on an Agilent RapidFire 365 High-throughput Mass Spectrometry system coupled to an Agilent 6550 iFunnel Q-TOF mass spectrometer following reported procedures[33],[34]. A RapidFire C4 (type A) solid-phase extraction (SPE) cartridge (Agilent, Cat#: G9203A) was used for analyte separation. A binary solvent system was used. Solvent A: 6 mM octylammonium acetate (prepared as described previously)[45] in H2O; solvent B: 80% v/v MeCN in H2O. Samples were aspirated into the sample loop using vacuum (40 μL) from a 96/384-well plate and loaded directly onto the SPE cartridge. The cartridge was washed with solvent A (4,000 ms, 1.5 mL min^−1), and the analyte was eluted with solvent B (4000 ms; 1.25 mL min^−1) onto the Q-TOF MS. Following each sample injection, the SPE cartridge was flushed with 3–6 cycles of H2O and MeCN to remove residual analyte before re-equilibration into solvent A. Q-TOF settings for DNA oligomer analysis were as follows: drying gas temperature: 280 °C; drying gas flow: 13 L min^−1; nebuliser gas pressure: 40 psig; sheath gas temperature: 350 °C; sheath gas flow: 12 L min^−1; capillary voltage (Vcap): 4000 V; nozzle voltage: 0 V; fragmentor voltage: 250 V; spectrum acquisition rate: 5 Hz. Data was processed using Agilent MassHunter Qualitative Analysis™ (B.07.00) and RapidFire Integrator software.
The samples were analysed by SPE-MS. […]

NgTet1 [3] = target: T1, NgTet1; format: biochemical; details: for 2OG Concentration / Succinate Concentration: 20 μM 5HC DNA
Protocol: Double-stranded 12 bp DNA oligomers were added at a final concentration of 20 µM. […]
Double-stranded DNA oligomers were added at a final concentration of 20 µM. […]
All ^1H NMR spectra were recorded at 25 °C using D2O as a reference for internal deuterium lock on a Bruker Avance III 700 MHz equipped with an inverse TCI cryoprobe in 3 or 5 mm diameter tubes with a total sample volume of 160 or 565 μL, respectively. The water signal was reduced using Perfect Echo excitation sculpting suppression. Chemical shifts are reported in ppm relative to D2O (δH = 4.70 ppm).
Spectrometer settings were determined using a control sample containing all reaction components excluding enzyme. TET enzyme was added to an identical sample, and the resulting assay mixture was transferred to an NMR tube before deposition into the instrument. […] Spectrum recordings were carried out consecutively without delay. Data were processed using automated routines on MestReNova v14.2.0; signals of interest were integrated with absolute intensity scaling. ^1H NMR time courses reported in figures are representative results from two or three independent replicates.

“5HC DNA: non-methylated DNA of the same sequence, 5'-ACC ACC GGT GGT-3', non-substrate (DNA ACCACCGGTGGT; DNA, backbone not given here)” was tested, and the “uncoupled 2OG decarboxylase activity relative to control” value (NgTet1 [1]; 1.2 equivalents (6.17 μM) of ligand, no 5mC DNA substrate) was 188%, the normalised activity (NgTet1 [1]; -Log[inhibitor] (M) 3.77815) was 173.555% and 199.834% and the normalised activity (NgTet1 [1]; -Log[inhibitor] (M) 4.25527) was 239.054% and 238.734%. For the same substance, the normalised activity (NgTet1 [1]; -Log[inhibitor] (M) 4.73239) was 235.651% and 234.615%, the normalised activity (NgTet1 [1]; -Log[inhibitor] (M) 5.20951) was 188.852% and 186.764% and the normalised activity (NgTet1 [1]; -Log[inhibitor] (M) 5.68664) was 131.036% and 130.504%. For the same substance, the normalised activity (NgTet1 [1]; -Log[inhibitor] (M) 6.16376) was 99.9166% and 102.373%, the normalised activity (NgTet1 [1]; -Log[inhibitor] (M) 6.64088) was 99.5022% and 101.543% and the normalised activity (NgTet1 [1]; -Log[inhibitor] (M) 7.118) was 100.648% and 101.556%. For the same substance, the normalised activity (NgTet1 [1]; -Log[inhibitor] (M) 7.59512) was 99.7851% and 102.052%, the normalised activity (NgTet1 [1]; -Log[inhibitor] (M) 8.07224) was 101.874% and 100.284% and the “enzymatic oxidation by NgTet1” value (NgTet1 [2]) was “did not undergo enzymatic oxidation”. For the same substance, the “2OG Concentration” value (NgTet1 [3]; time 6.31667 min) was 88.5781 µM, the “Succinate Concentration” value (NgTet1 [3]; time 6.31667 min) was 11.4219 µM and the “2OG Concentration” value (NgTet1 [3]; time 9.38333 min) was 79.2717 µM. For the same substance, the “Succinate Concentration” value (NgTet1 [3]; time 9.38333 min) was 20.7283 µM, the “2OG Concentration” value (NgTet1 [3]; time 12.45 min) was 72.6874 µM and the “Succinate Concentration” value (NgTet1 [3]; time 12.45 min) was 27.3126 µM. For the same substance, the “2OG Concentration” value (NgTet1 [3]; time 15.5167 min) was 67.5286 µM, the “Succinate Concentration” value (NgTet1 [3]; time 15.5167 min) was 32.4714 µM and the “2OG Concentration” value (NgTet1 [3]; time 18.6 min) was 63.1853 µM. The “Succinate Concentration” value (NgTet1 [3]; time 18.6 min) was 36.8147 µM, the “V0 NgTet1” value (NgTet1 [3]; 20 µM DNA, 100 μM 2OG, 5 μM NgTet1) was 1.30 µM/min and the “2-OG turnover rate” value (NgTet1 [3]; 2-OG 50 uM, 20 µM DNA) was 1.2756 µM/min and 1.3302 µM/min. The “2-OG turnover rate” value (NgTet1 [3]; 2-OG 100 uM, 20 µM DNA) was 2.0544 µM/min and 2.2614 µM/min, the “2-OG turnover rate” value (NgTet1 [3]; 2-OG 200 uM, 20 µM DNA) was 3.7602 µM/min and 3.5166 µM/min and the “2-OG turnover rate” value (NgTet1 [3]; 2-OG 400 uM, 20 µM DNA) was 4.4538 µM/min and 4.2732 µM/min. The “2-OG turnover rate” value (NgTet1 [3]; 2-OG 700 uM, 20 µM DNA) was 4.9836 µM/min and 5.0838 µM/min, the “2-OG turnover rate” value (NgTet1 [3]; 2-OG 1000 uM, 20 µM DNA) was 5.3268 µM/min and 5.3442 µM/min and the “2-OG turnover rate” value (NgTet1 [3]; 2-OG 2000 uM, 20 µM DNA) was 5.8116 µM/min and 5.7954 µM/min. For the same substance, the “2-OG turnover rate” value (NgTet1 [3]; 2-OG 4000 uM, 20 µM DNA) was 6.75 µM/min and 6.036 µM/min, the “succinate” value (NgTet1 [3]; n = 1, time (min) 5HC DNA 5.9, AT DNA 5.81667, 5mC DNA 5.78333) was 7.407 µM and the “succinate” value (NgTet1 [3]; n = 1, time (min) 5HC DNA 8.98333, AT DNA 8.9, 5mC DNA 8.86667) was 12.5672 µM. The “succinate” value (NgTet1 [3]; n = 1, time (min) 5HC DNA 12.0667, AT DNA 11.9833, 5mC DNA 11.95) was 16.4606 µM, the “succinate” value (NgTet1 [3]; n = 1, time (min) 5HC DNA 15.1333, AT DNA 15.0667, 5mC DNA 15.0333) was 19.1176 µM and the “succinate” value (NgTet1 [3]; n = 1, time (min) 5HC DNA 18.2167, AT DNA 18.1333, 5mC DNA 18.1167) was 21.6247 µM. For the same substance, the “succinate” value (NgTet1 [3]; n = 1, time (min) 5HC DNA 21.3667, AT DNA 21.2333, 5mC DNA 21.2) was 24.6175 µM, the “succinate” value (NgTet1 [3]; n = 1, time (min) 5HC DNA 24.45, AT DNA 24.3167, 5mC DNA 24.2833) was 26.0885 µM and the “succinate” value (NgTet1 [3]; n = 1, time (min) 5HC DNA 27.5333, AT DNA 27.3833, 5mC DNA 27.3667) was 28.2137 µM. For the same substance, the “succinate” value (NgTet1 [3]; n = 1, time (min) 5HC DNA 30.6, AT DNA 30.4667, 5mC DNA 30.45) was 29.4575 µM, the “succinate” value (NgTet1 [3]; n = 1, time (min) 5HC DNA 33.6833, AT DNA 33.55, 5mC DNA 33.5333) was 31.2095 µM and the “succinate” value (NgTet1 [3]; n = 1, time (min) 5HC DNA 36.7667, AT DNA 36.6333, 5mC DNA 36.6167) was 32.5108 µM. For the same substance, the “succinate” value (NgTet1 [3]; n = 1, time (min) 5HC DNA 39.85, AT DNA 39.7167, 5mC DNA 39.7) was 33.8071 µM, the “succinate” value (NgTet1 [3]; n = 1, time (min) 5HC DNA 42.9333, AT DNA 42.8, 5mC DNA 42.7833) was 34.7457 µM and the “succinate” value (NgTet1 [3]; n = 1, time (min) 5HC DNA 46.0167, AT DNA 45.8833, 5mC DNA 45.8667) was 35.7895 µM. For the same substance, the “succinate” value (NgTet1 [3]; n = 1, time (min) 5HC DNA 49.0833, AT DNA 48.9667, 5mC DNA 48.95) was 37.2861 µM, the “succinate” value (NgTet1 [3]; n = 1, time (min) 5HC DNA 52.1667, AT DNA 52.05, 5mC DNA 52.0333) was 38.1768 µM and the “succinate” value (NgTet1 [3]; n = 1, time (min) 5HC DNA 55.25, AT DNA 55.1167, 5mC DNA 55.1167) was 38.5101 µM. The “succinate” value (NgTet1 [3]; n = 1, time (min) 5HC DNA 58.3333, AT DNA 58.2, 5mC DNA 58.2) was 39.4428 µM, the “succinate” value (NgTet1 [3]; n = 1, time (min) 5HC DNA 61.4, AT DNA 61.2833, 5mC DNA 61.2833) was 40.1071 µM and the “succinate” value (NgTet1 [3]; n = 1, time (min) 5HC DNA 64.4833, AT DNA 64.3833, 5mC DNA 64.35) was 40.323 µM. The “succinate” value (NgTet1 [3]; n = 2, time (min) 5HC DNA 5.81667, AT DNA 5.61667, 5mC DNA 6.08333) was 6.9553 µM, the “succinate” value (NgTet1 [3]; n = 2, time (min) 5HC DNA 8.88333, AT DNA 8.7, 5mC DNA 9.16667) was 12.0978 µM and the “succinate” value (NgTet1 [3]; n = 2, time (min) 5HC DNA 12.0333, AT DNA 11.7833, 5mC DNA 12.25) was 15.5692 µM. The “succinate” value (NgTet1 [3]; n = 2, time (min) 5HC DNA 15.1167, AT DNA 14.8667, 5mC DNA 15.3167) was 18.665 µM, the “succinate” value (NgTet1 [3]; n = 2, time (min) 5HC DNA 18.1833, AT DNA 17.9333, 5mC DNA 18.4) was 21.5442 µM and the “succinate” value (NgTet1 [3]; n = 2, time (min) 5HC DNA 21.2667, AT DNA 21.0167, 5mC DNA 21.4833) was 23.7344 µM. The “succinate” value (NgTet1 [3]; n = 2, time (min) 5HC DNA 24.35, AT DNA 24.1, 5mC DNA 24.5667) was 25.3146 µM, the “succinate” value (NgTet1 [3]; n = 2, time (min) 5HC DNA 27.4333, AT DNA 27.1833, 5mC DNA 27.65) was 27.7156 µM and the “succinate” value (NgTet1 [3]; n = 2, time (min) 5HC DNA 30.5167, AT DNA 30.2667, 5mC DNA 30.7333) was 29.219 µM. The “succinate” value (NgTet1 [3]; n = 2, time (min) 5HC DNA 33.6, AT DNA 33.35, 5mC DNA 33.8167) was 30.6366 µM, the “succinate” value (NgTet1 [3]; n = 2, time (min) 5HC DNA 36.6833, AT DNA 36.4333, 5mC DNA 36.9) was 31.7592 µM and the “succinate” value (NgTet1 [3]; n = 2, time (min) 5HC DNA 39.7667, AT DNA 39.5167, 5mC DNA 39.9833) was 33.6089 µM. For the same substance, the “succinate” value (NgTet1 [3]; n = 2, time (min) 5HC DNA 42.8333, AT DNA 42.6, 5mC DNA 43.0667) was 34.5619 µM, the “succinate” value (NgTet1 [3]; n = 2, time (min) 5HC DNA 45.9167, AT DNA 45.6833, 5mC DNA 46.15) was 35.6503 µM and the “succinate” value (NgTet1 [3]; n = 2, time (min) 5HC DNA 49, AT DNA 48.7667, 5mC DNA 49.2333) was 37.1492 µM. For the same substance, the “succinate” value (NgTet1 [3]; n = 2, time (min) 5HC DNA 52.0833, AT DNA 51.85, 5mC DNA 52.3167) was 37.4628 µM, the “succinate” value (NgTet1 [3]; n = 2, time (min) 5HC DNA 55.1667, AT DNA 54.9333, 5mC DNA 55.4) was 38.3288 µM and the “succinate” value (NgTet1 [3]; n = 2, time (min) 5HC DNA 58.25, AT DNA 58.0167, 5mC DNA 58.4833) was 38.622 µM. The “succinate” value (NgTet1 [3]; n = 2, time (min) 5HC DNA 61.3333, AT DNA 61.1, 5mC DNA 61.5667) was 40.1844 µM, the “succinate” value (NgTet1 [3]; n = 2, time (min) 5HC DNA 64.4167, AT DNA 64.1667, 5mC DNA 64.65) was 40.2655 µM and the “Relative V0 NgTet1” value (NgTet1 [3]; relative to reactions without DNA) was 3.6. For the same substance, the “Vmax^app” value (NgTet1 [3]; with 20 µM 5HC DNA) was 6.47 µM/min and the “kcat^app” value (NgTet1 [3]; with 20 µM 5HC DNA) was 0.0217 s⁻¹.
